Test results as given in ChEMBL document CHEMBL5518174 (Eur J Med Chem, 2024).

Tests used:
[1] = Upregulation of acetylated H3 protein expression in human MDA-MB-231 cells assessed as fold change at 0.1 uM incubated for 24 hrs by immunoblotting analysis (reference value: 1); type: functional
[2] = Toxicity in athymic nude BALB/c mouse xenografted with human MDA-MB-231 cells assessed as effect on AST level in serum at 3 mg/kg, ip administered 5 times a week for 7 weeks; type: organism-based; details: in vivo, 1176 h
[3] = Effect on HDAC8 protein expression in human MDA-MB-231 cells assessed as fold change at 0.05 uM incubated for 24 hrs by immunoblotting analysis (reference value: 1); type: functional
[4] = Effect on HDAC11 protein expression in human NCI-H1975 cells assessed as fold change at 0.05 uM incubated for 24 hrs by immunoblotting analysis (reference value: 1); type: functional
[5] = molecular target: Histone deacetylase 3 (Homo sapiens, UniProt O15379); assay: Inhibition of recombinant human HDAC3 using acetylated luminogenic substrate incubated for 10 mins by ultra-glo recombinant firefly luciferase based luminescence assay
[6] = Upregulation of acetylated H4 protein expression in human NCI-H1975 cells assessed as fold change at 0.1 uM incubated for 24 hrs by immunoblotting analysis (reference value: 1); type: functional
[7] = Downregulation of HDAC10 protein expression in human MDA-MB-231 cells assessed as fold change at 0.1 uM incubated for 24 hrs by immunoblotting analysis (reference value: 1); type: functional
[8] = Upregulation of acetylated H3 protein expression in human NCI-H1975 cells assessed as fold change at 0.1 uM incubated for 24 hrs by immunoblotting analysis (reference value: 1); type: functional
[9] = Toxicity in athymic nude BALB/c mouse xenografted with human NCI-H1975 cells assessed as effect on AST level at 6 mg/kg, ip administered 5 times a week for 3 weeks and measured on day 22; type: organism-based; details: in vivo, 528 h, time 22 day
[10] = Upregulation of acetylated H3 protein expression in human MDA-MB-231 cells assessed as fold change at 0.05 uM incubated for 24 hrs by immunoblotting analysis (reference value: 1); type: functional
[11] = Effect on HDAC4 protein expression in human NCI-H1975 cells assessed as fold change at 0.05 uM incubated for 24 hrs by immunoblotting analysis (reference value: 1); type: functional
[12] = molecular target: T1, Histone deacetylase 7 (Homo sapiens, UniProt Q8WUI4); assay: Inhibition of recombinant human HDAC7 using acetylated luminogenic substrate incubated for 10 mins by ultra-glo recombinant firefly luciferase based luminescence assay
T1 sequence (Q8WUI4 whole entry): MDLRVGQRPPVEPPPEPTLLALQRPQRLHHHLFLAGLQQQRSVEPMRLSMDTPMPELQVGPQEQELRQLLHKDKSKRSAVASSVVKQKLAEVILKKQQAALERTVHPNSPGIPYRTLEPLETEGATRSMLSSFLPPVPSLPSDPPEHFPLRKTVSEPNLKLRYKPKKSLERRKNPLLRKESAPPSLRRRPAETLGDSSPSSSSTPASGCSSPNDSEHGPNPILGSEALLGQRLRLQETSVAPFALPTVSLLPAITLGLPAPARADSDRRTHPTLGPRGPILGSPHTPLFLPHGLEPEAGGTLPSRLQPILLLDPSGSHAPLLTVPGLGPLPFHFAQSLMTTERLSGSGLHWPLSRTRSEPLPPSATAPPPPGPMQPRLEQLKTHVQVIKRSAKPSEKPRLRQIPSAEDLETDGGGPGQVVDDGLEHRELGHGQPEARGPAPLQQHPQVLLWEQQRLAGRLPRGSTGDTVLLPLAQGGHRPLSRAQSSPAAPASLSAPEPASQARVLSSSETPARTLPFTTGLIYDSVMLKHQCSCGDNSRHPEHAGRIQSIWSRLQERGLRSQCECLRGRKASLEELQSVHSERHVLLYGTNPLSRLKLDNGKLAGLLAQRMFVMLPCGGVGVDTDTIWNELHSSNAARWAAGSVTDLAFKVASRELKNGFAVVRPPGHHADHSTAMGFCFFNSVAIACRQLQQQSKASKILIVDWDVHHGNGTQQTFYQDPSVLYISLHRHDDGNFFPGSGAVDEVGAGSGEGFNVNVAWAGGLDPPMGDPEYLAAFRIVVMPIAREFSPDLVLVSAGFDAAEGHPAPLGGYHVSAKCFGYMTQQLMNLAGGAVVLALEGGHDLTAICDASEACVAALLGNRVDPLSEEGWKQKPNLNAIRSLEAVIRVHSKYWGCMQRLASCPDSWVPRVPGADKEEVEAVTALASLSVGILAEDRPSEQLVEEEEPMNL

[13] = Upregulation of acetylated H4 protein expression in human MDA-MB-231 cells assessed as fold change at 0.05 uM incubated for 24 hrs by immunoblotting analysis (reference value: 1); type: functional
[14] = Downregulation of HDAC11 protein expression in human MDA-MB-231 cells assessed as fold change at 0.1 uM incubated for 24 hrs by immunoblotting analysis (reference value: 1); type: functional
[15] = Downregulation of HDAC8 protein expression in human NCI-H1975 cells assessed as fold change at 0.05 uM incubated for 24 hrs by immunoblotting analysis (reference value: 1); type: functional
[16] = Downregulation of HDAC9 protein expression in human NCI-H1975 cells assessed as fold change at 0.1 uM incubated for 24 hrs by immunoblotting analysis (reference value: 1); type: functional
[17] = Downregulation of HDAC9 protein expression in human MDA-MB-231 cells assessed as fold change at 0.1 uM incubated for 24 hrs by immunoblotting analysis (reference value: 1); type: functional
[18] = molecular target: T2, Polyamine deacetylase HDAC10 (Homo sapiens, UniProt Q969S8); assay: Inhibition of recombinant human HDAC10 using acetylated luminogenic substrate incubated for 10 mins by ultra-glo recombinant firefly luciferase based luminescence assay
T2 sequence (Q969S8 whole entry): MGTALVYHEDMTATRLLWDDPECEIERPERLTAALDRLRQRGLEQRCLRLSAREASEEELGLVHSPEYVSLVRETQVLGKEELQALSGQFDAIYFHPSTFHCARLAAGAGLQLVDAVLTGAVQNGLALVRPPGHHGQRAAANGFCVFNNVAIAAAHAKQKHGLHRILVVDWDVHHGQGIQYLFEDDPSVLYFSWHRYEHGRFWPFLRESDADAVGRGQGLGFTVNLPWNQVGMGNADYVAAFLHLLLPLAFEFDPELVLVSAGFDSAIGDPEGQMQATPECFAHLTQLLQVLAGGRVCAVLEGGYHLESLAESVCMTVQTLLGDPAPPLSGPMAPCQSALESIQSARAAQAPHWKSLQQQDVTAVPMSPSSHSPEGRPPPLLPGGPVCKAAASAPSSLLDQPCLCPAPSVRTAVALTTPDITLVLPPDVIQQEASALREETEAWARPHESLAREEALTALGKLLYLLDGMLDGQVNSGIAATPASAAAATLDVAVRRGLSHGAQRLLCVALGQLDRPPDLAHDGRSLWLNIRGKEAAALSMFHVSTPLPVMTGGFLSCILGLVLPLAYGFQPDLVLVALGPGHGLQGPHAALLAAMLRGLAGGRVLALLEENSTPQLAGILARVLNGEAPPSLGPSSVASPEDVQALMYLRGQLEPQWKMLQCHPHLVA

Sequence of Histone deacetylase 3 (O15379 whole entry): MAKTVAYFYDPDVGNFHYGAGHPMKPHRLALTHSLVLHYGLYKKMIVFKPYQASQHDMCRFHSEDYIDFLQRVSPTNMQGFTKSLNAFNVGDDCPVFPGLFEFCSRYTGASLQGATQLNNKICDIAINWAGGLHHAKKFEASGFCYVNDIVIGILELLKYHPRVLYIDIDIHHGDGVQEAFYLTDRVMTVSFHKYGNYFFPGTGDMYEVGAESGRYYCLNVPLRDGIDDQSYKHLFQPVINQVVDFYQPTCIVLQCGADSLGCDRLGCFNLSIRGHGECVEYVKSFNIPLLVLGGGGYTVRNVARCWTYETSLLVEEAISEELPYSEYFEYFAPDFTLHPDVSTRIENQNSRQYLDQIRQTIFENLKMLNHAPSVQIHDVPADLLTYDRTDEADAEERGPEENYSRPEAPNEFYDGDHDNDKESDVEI

IC50 [5]: 8.8 nM
IC50 [12]: > 1000 nM
IC50 [18]: 18.9 nM
SMILES: CCOc1ccc(-c2nc(C(=O)NCc3ccc(C(=O)NO)cc3)c3[nH]c(=O)n(-c4cccnc4OC)c3n2)cn1
fold change (FC) [1]: 1.35
Activity [2]: Non-Toxic
fold change (FC) [3]: 1.7
fold change (FC) [4]: 1.15
fold change (FC) [6]: 1.95
fold change (FC) [7]: 0.88
fold change (FC) [8]: 2.19
Activity [9]: Non-Toxic
fold change (FC) [10]: 1.29
fold change (FC) [11]: 1.33
fold change (FC) [13]: 1.74
fold change (FC) [14]: 0.2
fold change (FC) [15]: 0.85
fold change (FC) [16]: 0.33
fold change (FC) [17]: 0.94
